We go through 21 compounds from patent publication US9273057B2 (Bristol-Myers Squibb Company, priority 2012, dated 2016).

Structures can show the parent of a compound that is named as a salt.

For this test, the target named is CK2A1 (CK2α/β) (Homo sapiens, UniProt P68400). As to the kind of experiment: CK2 kinase assay, CK2A1 (CK2α/β). It counts as biochemical. The conditions noted are these: Table A; read-out: CK2A1 (CK2α/β) (IC50).
Sequence of CK2A1 (CK2α/β) (P68400 whole entry, species assumed): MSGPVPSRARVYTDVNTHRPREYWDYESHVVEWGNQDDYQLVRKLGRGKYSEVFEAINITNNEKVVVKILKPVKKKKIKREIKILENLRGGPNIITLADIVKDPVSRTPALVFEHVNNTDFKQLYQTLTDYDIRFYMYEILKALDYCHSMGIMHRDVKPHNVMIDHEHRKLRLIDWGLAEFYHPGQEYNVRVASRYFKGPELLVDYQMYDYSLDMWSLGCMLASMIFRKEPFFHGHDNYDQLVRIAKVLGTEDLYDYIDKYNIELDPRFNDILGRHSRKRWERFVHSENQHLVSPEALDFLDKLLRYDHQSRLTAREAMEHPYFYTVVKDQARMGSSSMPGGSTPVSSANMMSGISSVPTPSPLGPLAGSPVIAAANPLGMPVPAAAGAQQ
Sequence of CK2A1 (CK2α/β) (P67870 whole entry partner, species assumed): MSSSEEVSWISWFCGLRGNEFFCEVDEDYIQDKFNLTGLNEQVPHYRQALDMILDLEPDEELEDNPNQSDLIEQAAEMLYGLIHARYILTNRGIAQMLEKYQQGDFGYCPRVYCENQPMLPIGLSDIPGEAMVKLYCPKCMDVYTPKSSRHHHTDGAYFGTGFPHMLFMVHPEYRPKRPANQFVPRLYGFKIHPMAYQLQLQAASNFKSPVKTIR
`CCNc1nc(Nc2cc(C#N)cc(N3CCN([C@H]4C[C@@H](O)C4)CC3)c2Cl)nn2c(C#N)cnc12` [Example 610, 2-[(2-chloro-5-cyano-3-{4-[(1a,3s)-3-hydroxycyclobutyl]piperazin-1-yl}phenyl)amino]-4-(ethylamino)imidazo[2,1-f][1,2,4]triazine-7-carbonitrile]: the IC50 came out at 1.08 nM.

Consider `[2H]C1(N2CCC(c3cc(C#N)cc(Nc4nc(NCC)c5ncc(C#N)n5n4)c3Cl)CC2)COC1` [Example 350, 2-((2-chloro-5-cyano-3-(1-(3-~2~H)-3-oxetanyl-4-piperidinyl)phenyl)amino)-4-(ethylamino)imidazo[2,1-f][1,2,4]triazine-7-carbonitrile], for which the IC50 was 1.74 nM.

As to `CCNc1nc(Nc2cc(C#N)cc(N3CC[C@@H](NC(=O)OC)[C@H](OC(=O)[C@H](C)OP(=O)(O)O)C3)c2Cl)nn2c(C#N)cnc12` [Example 340, (S)-(3R,4R)-1-(2-chloro-5-cyano-3-((7-cyano-4-(ethylamino)imidazo[2,1-f][1,2,4]triazin-2-yl)amino)phenyl)-4-((methoxycarbonyl)amino)piperidin-3-yl 2-(phosphonooxy)propanoate], the IC50 is 6 nM.

With `COCC(=O)N1CCC(c2cc(C#N)cc(Nc3nc(NC4CC4)c4ncc(C#N)n4n3)c2Cl)CC1` [Example 227, 2-((2-chloro-5-cyano-3-(1-(methoxyacetyl)-4-piperidinyl)phenyl)amino)-4-(cyclopropylamino)imidazo[2,1-f][1,2,4]triazine-7-carbonitrile], the IC50 amounted to 0.59 nM.

For the compound `CCNc1nc(Nc2cc(C#N)cc(C3CCN(CCOC)CC3)c2Cl)nn2c(C#N)cnc12` [Example 352, 2-((2-chloro-5-cyano-3-(1-(2-methoxyethyl)-4-piperidinyl)phenyl)amino)-4-(ethylamino)imidazo[2,1-f] [1,2,4]triazine-7-carbonitrile], the IC50 was found to be 2.73 nM.

With `CCNc1nc(Nc2cc(C#N)cc(N3CCC4(CCN(C(C)=O)C4)CC3)c2Cl)nn2c(C#N)cnc12` [Example 787, 2-((3-(2-acetyl-2,8-diazaspiro[4.5]decan-8-yl)-2-chloro-5-cyanophenyl)amino)-4-(ethylamino)imidazo[2,1-f][1,2,4]triazine-7-carbonitrile], the IC50 was found to be 1.66 nM.

Regarding `CO[C@@H]1CN(c2cc(C#N)cc(Nc3nc(NC4CC4)c4ncc(C#N)n4n3)c2Cl)C[C@@H]1N` [Example 30, 2-((3-((3S,4R)-3-amino-4-methoxy-1-pyrrolidinyl)-2-chloro-5-cyanophenyl)amino)-4-(cyclopropylamino)imidazo [2,1-f][1,2,4]triazine-7-carbonitrile], the IC50 came out at 0.92 nM.

As to `CO[C@@H]1CN(c2cc(C#N)cc(Nc3nc(NC4CC4)c4ncc(C#N)n4n3)c2Cl)C[C@@H]1NC(=O)NC1COC1` [Example 290, 1-((3S,4R)-1-(2-chloro-5-cyano-3-((7-cyano-4-(cyclopropylamino)imidazo[2,1-f][1,2,4]triazin-2-yl)amino)phenyl)-4-methoxy-3-pyrrolidinyl)-3-(3-oxetanyl)urea], the IC50 worked out at 0.47 nM.

`CCNc1nc(Nc2cc(C#N)cc(N3CC[C@@H](NC(=O)OC)[C@H](OC(=O)C[C@@H](N)CC(C)C)C3)c2Cl)nn2c(C#N)cnc12` [Example 819, (S)-(3R,4R)-1-(2-chloro-5-cyano-3-((7-cyano-4-(ethylamino)imidazo[2,1-f][1,2,4]triazin-2-yl)amino)phenyl)-4-((methoxycarbonyl)amino)piperidin-3-yl 3-amino-5-methylhexanoate hydrochloride]: the IC50 came out at 5.81 nM.

As for `N#Cc1cc(Nc2nc(NC3CC3)c3ncc(C#N)n3n2)c(Cl)cc1NC1CCNCC1` [Example 410, 2-((2-chloro-5-cyano-4-(piperidin-4-ylamino)phenyl)amino)-4-(cyclopropylamino)imidazo[2,1-f][1,2,4]triazine-7-carbonitrile], the IC50 amounted to 0.68 nM.

Consider `N#Cc1cc(Nc2nc(NC3CC3)c3ncc(C#N)n3n2)c(Cl)c(N2CCN([C@H]3C[C@H](C#N)C3)CC2)c1` [Example 107, 2-((2-chloro-5-cyano-3-(4-(trans-3-cyanocyclobutyl)-1-piperazinyl)phenyl)amino)-4-(cyclopropylamino) imidazo[2,1-f][1,2,4] triazine-7-carbonitrite], for which the IC50 is 0.59 nM.

With `COC(=O)NC1CCN(c2cc(C#N)cc(Nc3nc(NC4CC4)c4ncc(C#N)n4n3)c2Cl)CC1` [Example 146, methyl (1-(2-chloro-5-cyano-3-((7-cyano-4-(cyclopropylamino)imidazo [2,1-f][1,2,4]triazin-2-yl)amino)phenyl)-4-piperidinyl)carbamate], the IC50 was found to be 1.19 nM.

In the case of `CCNc1nc(Nc2cc(C#N)cc(N3CCC4(CC3)CC(=O)N(C)C4)c2Cl)nn2c(C#N)cnc12` (racemic) [Example 783, (+/−)-2-((2-chloro-5-cyano-3-(2-methyl-3-oxo-2,8-diazaspiro[4.5]decan-8-yl)phenyl)amino)-4-(ethylamino)imidazo[2,1-f][1,2,4]triazine-7-carbonitrile], the IC50 was found to be 3.76 nM.

`CNC1CCN(c2cc(C#N)cc(Nc3nc(NC4CC4)c4ncc(C#N)n4n3)c2Cl)C1` (racemic) [Example 28, (+/−) 2-((2-chloro-5-cyano-3-(3-(methylamino)-1-pyrrolidinyl)phenyl)amino)-4-(cyclopropylamino)imidazo [2,1-f][1,2,4]triazine-7-carbonitrile]: the IC50 is 0.57 nM.

As for `COC(=O)N[C@H]1CCN(c2cc(C#N)cc(Nc3nc(NC4CC4)c4ncc(C#N)n4n3)c2Cl)C[C@H]1NC1(C)COC1` [Example 754, methyl N-[(3R,4S)-1-(2-chloro-5-cyano-3-{[7-cyano-4-(cyclopropylamino)imidazo [2,1-f][1,2,4]triazin-2-yl]amino}phenyl)-3-[(3-methyloxetan-3-yl)amino]piperidin-4-yl]carbamate], the IC50 worked out at 2.93 nM.

Regarding `N#Cc1cc(Nc2nc(NC3CC3)c3ncc(C#N)n3n2)c(Cl)c(N2CCN(CC3(O)COC3)CC2)c1` [Example 580, 2-[(2-chloro-5-cyano-3-{4-[(3-hydroxyoxetan-3-yl)methyl]piperazin-1-yl}phenyl)amino]-4-(cyclopropylamino)imidazo [2,1-f][1,2,4]triazine-7-carbonitrile], the IC50 turned out to be 3.2 nM.

As to `CCNc1nc(Nc2cc(C#N)cc(N3CCN(C4CN(C(C)=O)C4)CC3)c2Cl)nn2c(C#N)cnc12` [Example 605, 2-({3-[4-(1-acetylazetidin-3-yl)piperazin-1-yl]-2-chloro-5-cyanophenyl}amino)-4-(ethylamino)imidazo[2,1-f][1,2,4]triazine-7-carbonitrile], the IC50 was determined as 0.91 nM.

Turning to `CC(=O)N1CC2(CCN(c3cc(C#N)cc(Nc4nc(NC5CC5)c5ncc(C#N)n5n4)c3Cl)CC2)C1` [Example 793, 2-((3-(2-acetyl-2,7-diazaspiro[3.5]nonan-7-yl)-2-chloro-5-cyanophenyl)amino)-4-(cyclopropylamino)imidazo[2,1-f][1,2,4]triazine-7-carbonitrile], the IC50 worked out at 0.81 nM.

For `CC(C)(O)CN1CCC(c2cc(C#N)cc(Nc3nc(NC4CC4)c4ncc(C#N)n4n3)c2Cl)CC1` [Example 219, 2-((2-chloro-5-cyano-3-(1-(2-hydroxy-2-methylpropyl)-4-piperidinyl)phenyl)amino)-4-(cyclopropylamino)imidazo[2,1-f][1,2,4]triazine-7-carbonitrile], the IC50 is 0.59 nM.

Turning to `C[C@@H](N)C(=O)N1CCC(c2cc(C#N)cc(Nc3nc(NC4CC4)c4ncc(C#N)n4n3)c2Cl)CC1` [Example 241, 2-((3-(1-D-alanyl-4-piperidinyl)-2-chloro-5-cyanophenyl)amino)-4-(cyclopropylamino)imidazo[2,1-f][1,2,4]triazine-7-carbonitrile], the IC50 came out at 0.59 nM.

Regarding `CC1(O)CN([C@@H]2CCCN(c3cc(C#N)cc(Nc4nc(NC5CC5)c5ncc(C#N)n5n4)c3Cl)C2)C1` [Example 45, 2-((2-chloro-5-cyano-3-((3R)-3-(3-hydroxy-3-methyl-1-azetidinyl)-1-piperidinyl)phenyl)amino)-4-(cyclopropylamino)imidazo [2,1-f][1,2,4]triazine-7-carbonitrile], the IC50 worked out at 0.96 nM.
